Assay [1] has as its system muscle-invasive bladder cancer. Kind of assay: Pathologic response to neoadjuvant cisplatin-based chemotherapy, DFCI/MSKCC cohort. In kind it is in vivo, human. To be noted: for complete response rate: all cases. The text has this: (§1) To validate the ability of the NERDetect classifier to discriminate between ERCC2 mutant and WT bladder tumors, we analyzed WES data from three additional independent bladder cancer cohorts^53,0,31. The DFCI/MSK (n=50) and FCCC (n=48) cohorts are comprised of muscle-invasive bladder cancer patients who received neoadjuvant cisplatin-based chemotherapy followed by radical cystectomy, while the BGI cohort (n=98) included patients with MIBC or non-muscle-invasive bladder cancer.
(§2) Patients in the DFCI/MSK and FCCC cohorts were treated with cisplatin-based chemotherapy followed by radical cystectomy, and cisplatin responders were defined as those that had no residual invasive disease on pathologic examination of the cystectomy specimen.
(§3) Patients in the DFCI/MSK and Philadelphia cohorts were treated with cisplatin-based chemotherapy followed by radical cystectomy, and cisplatin responders were defined as patients with no residual invasive disease on pathologic examination of the cystectomy specimen.

Assay [2] has as its system KE1 bladder cancer cell line (ERCC2-mutated derivative of KU19-19, NER-deficient). Kind of assay: In vitro drug sensitivity assay (CellTiter-Glo). In kind it is cell-based. The note with it: NER-deficient KE1, compared with isogenic KU19-19; 48 to 72 hours. From the text:
(§4) Bladder cancer cell lines were purchased from ATCC. The KE1 bladder cancer cell line is a derivative of KU19-19 in which an ERCC2 T484 mutation has been introduced by CRISPR/Cas9 gene editing as previously described (6). The MDA-MB-468 breast cancer cell line and its ERCC4-complemented derivative have been previously described (35). Small interfering RNAs (siRNAs) targeting specific NER genes as well as a non-targeting siRNA (siNTC) were purchased from Integrated DNA Technologies Inc. (Coralville, IA, USA; see Table 9 for sequences). Cells were seeded in 6-well plates and grown to 50% confluency. A transfection mixture containing siRNA diluted to a final concentration of 30 nM in Opti-MEM media containing Lipofectamine 3000 (Life Technologies; Carlsbad, CA) was then added to cells. After 48 hours, cells were trypsinized and re-aliquoted to separate wells and transfected with 15 nM siRNA for 24 hours immediately prior to viability assays performed as described below. […]
(§5) Cells were seeded in either 96-well (5,000 cells/well) or 24-well (20,000 cells/well) plates. […] Plates were scanned using a luminescence microplate reader (BioTek). […]
(In general: Cellular ATP, detected with luciferase, serves as a proxy for viable cell number.)

For assay [3], the system named is SC14 (SW1710 derivative with ERCC2 P463L mutation). The assay is described as follows: In vitro drug sensitivity assay. In kind it is cell-based. To be noted: ERCC2-mutant SC14 line compared with SW1710.
Source text: as §4, §5

In assay [4] the test system is muscle-invasive and metastatic urothelial cancer. To be noted: cisplatin-based chemotherapy, first-line; cited from earlier work.
The subject of assay [5] is MDA-MB-468 breast cancer cell line (NER deficient, ERCC4 silenced). To be noted: MDA-MB-468 with re-expression of WT ERCC4; previous work; cited from earlier work.
In assay [6] the test system is muscle-invasive bladder cancer. The assay is described as follows: Pathologic response to neoadjuvant cisplatin-based chemotherapy, Philadelphia (FCCC) cohort. In kind it is in vivo, human.
Source text: as §1, §2, §3

The subject of assay [7] is cisplatin-resistant MDA-MB-468 cell line. Kind of assay: In vitro drug sensitivity assay in cisplatin-resistant derivative. To be noted: cisplatin-resistant vs parental MDA-MB-468. In kind it is cell-based. The method, then: Cells were seeded in either 96-well (5,000 cells/well) or 24-well (20,000 cells/well) plates. The following day, irofulven and cisplatin stock solutions were serially diluted in media and added to cells. After 48 to 72 hours, media was removed and CellTiter-Glo® reagent (Promega; Madison, WI) was added. Plates were scanned using a luminescence microplate reader (BioTek). Survival at each drug concentration was plotted as a percentage of survival in drug-free media with error bars representing the standard deviation of at least three experiments.
Platinum-based chemotherapy is a first-line treatment for numerous solid malignancies including bladder cancer, but platinum resistance frequently occurs and represents a challenging clinical problem. Although a variety of platinum resistance mechanisms have been characterized, restoration or upregulation of DNA repair is a common mechanism of resistance, particularly in HR-deficient breast and ovarian tumors^33. Mechanisms of platinum resistance in NER deficient tumors have not been characterized, and we wished to determine if acquired resistance to cisplatin would confer cross-resistance to irofulven through restoration of NER. To test this, we derived cisplatin resistance in the NER-deficient MDA-MB-468 cell line by gradual exposure to escalating doses of cisplatin (Methods).

Molecules are shown by their SMILES.

Turning to `N.N.[Cl][Pt][Cl]` [cisplatin], the cisplatin responders stood at 28% in assay [1] (WT ERCC2 patients, ERCC2mut score<0.70 (9 of 32)); 78% in assay [1] (WT ERCC2 patients, ERCC2mut score≥0.70 (seven of nine)); 32% in assay [1] (WT ERCC2 patients, NERDetect score<0.75 (10 of 31)); 75% in assay [1] (WT ERCC2 patients, NERDetect score≥0.75 (six of eight)); 39% in assay [1] (all 41 WT ERCC2 cases (16)). For the same compound, the complete response rate in assay [1] (ERCC2mut score<0.70 (10 of 33)) is on record as 30%; in assay [1] (ERCC2mut signature score≥0.70 (15 of 17)), 88%; in assay [1] (NERDetect score ≥0.75 (14 of 16)), 87%; in assay [1] (NERDetect score<0.75 (11 of 34)) it was 32%; in assay [6] (ERCC2mut score<0.70 (14 of 42)) it was 33%; in assay [6] (ERCC2mut signature score≥0.70 (all six)), 100%. The figures for the complete response rate in assay [6] (NERDetect score<0.75 (14 of 41)) and in assay [6] (NERDetect score≥0.75 (six of seven)) were 34% and 86%, respectively. In addition, the “drug sensitivity (survival as percentage of drug-free media)” value in assay [2] was “increased sensitivity”. In addition, the drug sensitivity entry in assay [3] is “significantly increased sensitivity”. Further, the “patients with an initial response” value in assay [4] is given as 60-70%. The “cisplatin sensitivity after re-expression of ERCC4” value in assay [5] is on record as “could be rescued”. Further, the “cisplatin IC50, cisplatin resistant cell line relative to parental” value in assay [7] is on record as ~ 3.5 fold.

(Values after patent publication US12691143B2, “Method for treating cancer” (priority 2020, dated 2026).)
